Laboratory results as given in US9371330B2, “Substituted pyrazino[1,2-a]pyrimidines useful as CBP/catenin antagonists for enhancing asymmetric division of somatic stem cells” (University of Southern California, priority 2011, dated 2016).
“Also recorded” adds a separate entry of the source.

What was measured:
[1] = tested on: mitotic cells in the ventricular zone (VZ); experiment: symmetric versus asymmetric divisions (Par3 distribution) in the ventricular zone of mouse embryos; assay type: in vivo
Excerpt: Taking advantage of the ready uptake and penetration through the placental barrier of applicant's small molecule Wnt modulators, applicant designed a series of experiments to investigate symmetric versus asymmetric divisions in the ventricular zone (VZ) of the brain during mouse embryonic development. Timed pregnant mice were topically treated for various time periods (1-3 days) with DMSO (vehicle control), the CBP/catenin antagonist ICG-001 or the p300/catenin antagonist IQ-1. Using a previously described protocol (56), the localization of […] (Par3) and DNA was examined in mitotic cells in the VZ. Par3 distributes symmetrically in cells that divide symmetrically and asymmetrically in cells that divide asymmetrically, whereas the DNA distributes symmetrically between the 2 cells. Using fluorescence microscopy, the percentage of mitotic cells dividing symmetrically or asymmetrically could be quantified. […] Antagonizing the CBP/catenin interaction with ICG-001 had no apparent effect yielding similarly, approximately 21% asymmetric divisions. […] Importantly, this decrease in asymmetric divisions upon treatment with IQ-1 could be rescued back essentially to control levels (i.e. ˜21%) by treatment with a 2-fold excess of ICG-001. Even further divergence in symmetric versus asymmetric divisions could be seen upon prolonged treatments. For example, treatment with IQ-1 (i.e., antagonizing p300/catenin interaction leading to increased usage of CBP) for 3 days (E13.5-16.5) decreased asymmetric divisions compared to control from 31% to 7%. […] This reporter mouse expresses EGFP, driven by the Tis21 promoter, in cells that have undergone neurogenic differentiative divisions.
For example, Bultje et al (Bultje R Neuron 63, 189-202, 2009) describe an assay to measure asymmetric distributions in the ventricular zone (vz) to evaluate asymmetric divisions during neurogenesis. Essentially this involves treating the animal (either adult or in utero) for a set period of time with compounds (either p.o., s.c., i.v. or topically) with compounds and then sacrificing the animal and examining the Par3 distribution (e.g., via immunohistochemistry) in mitotic cells vs. DNA distribution (e.g., using DAPI staining) Par3 distributes equally among the two daughter cells during symmetric division and unequally (essentially all in one daughter cell) during asymmetric differentiation.

[2] = tested on: murine embryonic stem cells (mESCs); experiment: long-term culture of murine embryonic stem cells; assay type: cell-based, mouse; settings: Wnt-dependent
Excerpt: (§1) IQ-1. In addition to ICG-001, a screen of a large chemical library for maintenance of pluripotency in mES cells led to the identification of another compound, termed IQ-1 (FIG. 2b). […] I-Q-1 diminishes the interaction between p300 and beta-catenin thereby increasing the CBP/beta-catenin interaction (24).

[3] = tested on: PR72/130 subunit of the serine/threonine phosphatase PP2A; experiment: binding to PP2A subunit
Excerpt: as §1

skin injury = skin injury repair in normal and hair-less mice; assay type: in vivo, mouse; settings: 500 μM in vaseline, once a day for eight days
Protocol: The ability of CBP/catenin (e.g., CBP/β-catenin) antagonist to accelerate injured skin repair in normal mice models (having full hair growth and normal fur) and hair-less mice models was tested. In brief, on day 0, the animals were subjected to skin injury in two spots on the back, hind end of each animal. Each skin injury spot was treated with 500 μM of either Vaseline (petrolatum) (vehicle) or Laura-8 in vaseline once a day for eight days.

hair-less mouse model = experiment: hair growth in hair-less mouse model; assay type: in vivo; settings: vs petroleum jelly
Protocol: The ability of CBP/β-catenin antagonist to stimulate hair growth in a hair-less mouse model was tested. In brief, the animals were treated with either petroleum jelly or Laura-8 for 16 days. In addition, skin samples from each animal were taken and examined for hair-follicle formulation.

normal stem cell niche = experiment: aging mice, long term topical administration; assay type: in vivo, mouse; settings: 12 months (6 to 18 months of age)
Excerpt: Left mouse is control, whereas right mouse received CBP/catenin (e.g., CBP/β-catenin) antagonists (topical Laura-8 as disclosed herein) for 12 months (from 6 months of age to 18 months of age).

elastin = experiment: ex vivo human skin assay, qRT-PCR of elastin; assay type: cell-based; settings: 24 hrs; 5 uM ICG-001, 5 uM methylated ICG-001, 1 ug/ml RA
Protocol: (§2) Methods. Ex Vivo human skin assay culture conditions were based upon a paper by Varani J et al Experimental and Molecular Pathology, 2004.
(§3) Briefly, human skin (surgical waste from plastic surgery procedures) was obtained and the subcutaneous layer of fat was trimmed manually with a scalpel. The skin was then cut into small fragments about 2 mm square and placed in 6 well plates. 1 ml of keratinocyte culture medium (Gibco 10724-011) with 1% P/S (penstrep antibiotic) was added to each well. The epidermis, bathed in media was placed facing up. On the next day (overnight culture in the media above), the skin fragments were transferred to fresh wells that contained either 5 uM ICG-001, 5-uM methylated ICG-001 or 1 ug/ml of retinoic acid (RA). After 24 hrs, skin samples in culture were removed for RNA isolation and qRT-PCR analysis of genes of interest (e.g. elastin (a gene involved in skin appearance and pliability (e.g., wrinkling) and aquaporin 1, which is involved with hydration.

aquaporin 1 = experiment: ex vivo human skin assay, qRT-PCR of aquaporin 1; assay type: cell-based; settings: 24 hrs; 5 uM ICG-001, 5 uM methylated ICG-001, 1 ug/ml RA
Protocol: as §2, §3

SMILES: CC(=O)c1ccc(N=NC(C(N)=O)=C2NC(C)(C)Cc3ccccc32)cc1 [IQ-1]
- asymmetric divisions in the VZ ([1]; 3 days (E13.5-16.5)): 7%
- effect on number of asymmetric divisions ([1]; topical or oral administration to pregnant mice): decreases the number of asymmetric divisions
- asymmetric divisions in the VZ ([1]; topical to timed pregnant mice, 1 day (E13.5 to 14.5)): approximately 9%
- maintenance of pluripotency [2]: maintains the pluripotency
- binding to PR72/130 [3]: binds to the PR72/130 subunit of the serine/threonine phosphatase PP2A

SMILES: CCCCCCCCCCCC(=O)Oc1ccc(C[C@H]2C(=O)N(Cc3cccc4ccccc34)C[C@@H]3N(C(=O)NCc4ccccc4)CCC(=O)N32)cc1 [Laura-8]
- skin healing (skin injury): significantly accelerated skin healing process
- hair growth (hair-less mouse model; 16 days): significant hair growth
- new hair-follicle formation (skin pathology) (hair-less mouse model): new hair-follicles were formed; also recorded: substantial new hair-follicle formation
- depletion of the normal stem cell niche (normal stem cell niche): does not deplete the normal stem cell niche

SMILES: C[C@H]1C2N(C(=O)NCc3ccccc3)CCC(=O)N2[C@@H](Cc2ccc(O)cc2)C(=O)N1Cc1cccc2ccccc12 (stereo partly drawn) [Me-ICG-001, (6S,9S)—N-benzyl-6-(4-hydroxybenzyl)-9-methyl-8-(naphthalen-1-ylmethyl)-4,7-dioxooctahydro-1H-pyrazino[1,2-a]pyrimidine-1-carboxamide]
- expression of elastin (elastin): larger increase
- expression of aquaporin 1 (aquaporin 1): larger increase
